In brackets after ≈: the same amount, converted by molar mass. Where two headings read alike, the source gives them in different places.
Legend:
[1] = Toxicity in treated gerbils (deaths or significant weight loss); format: in vivo; parameters: key: +: Toxicity is indicated for those groups having one or more animals expired; conditions: single oral dose of 50 mg/kg, groups of 3
Method: In this evaluation, gerbils are infected with Trichostrongylus columbriformis infective larvae at a concentration of approximately 800 L3/mL. Larvae for gerbil infections are cultured from feces from sheep previously infected with T. colubriformis. One week post infection, test compounds are administered by gavage as a single oral dose of 50 mg/kg of body weight. For each group of 3 gerbils, 10 mg of test compound are dissolved in 2 mL of PEG 400:DMSO (1:2 v/v) and each animal is administered the test solution at a rate of 0.1 mL/10 g of body weight. […] All animals are observed daily for morbidity and mortality. Four days post-treatment, all animals are weighed and necropsied. Worm counts are conducted with the use of stereoscopes and counters.

[2] = test system: Trichostrongylus columbriformis; assay: In vivo efficacy against T. colubriformis in infected gerbils; conditions: gerbils infected with T. colubriformis; single oral dose of 50 mg/kg by gavage; worm counts four days post-treatment; % mortality as compared to negative control
Summary of the method: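 Gerbils infected with ~800 L3/mL larvae were treated one week later by gavage with a single 50 mg/kg oral dose in PEG 400:DMSO (1:2 v/v), 3 animals per group. Necropsy four days post-treatment, with worms counted under stereoscopes.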

C. elegans = assay: Efficacy against nematodes (C. elegans motility rating); parameters: key: 0: no effect; 7: reduced movement in 24 h; 8: dead in 24 h; 9: dead in 4 h; conditions: dose 100 ppm, observations at 4 h and 24 h postimmersion
Summary of the method: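 Mixed-stage C. elegans (~50 per well, L1 to adult) in M9 buffer exposed to test compound at 100 ppm, 150 ppm or 200 μM final. Motility of larvae and adults scored under dissecting microscope at 4 h and 24 h.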

enterococci = assay: Minimum inhibitory concentration, microdilution broth method, enterococci; format: cell-based; conditions: Enterococcus faecalis, Mueller-Hinton broth, 18-22 hours at 35° C.
Summary of the method: (§1)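 Recent clinical isolates, some resistant to methicillin, penicillin and/or vancomycin, were tested by the broth microdilution method of NCCLS Approved Standard M7-A5 2000. Mueller-Hinton broth served for staphylococci and enterococci, while streptococci received the same broth supplemented with 5% horse blood.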

Streptococci = assay: Minimum inhibitory concentration, microdilution broth method, streptococci; format: cell-based; conditions: S. pneumo GC 1894; Mueller-Hinton broth with 5% horse blood, 18-22 hours at 35° C.
Summary of the method: as §1

[3] = biological target: E. coli Uridine-diphosphate-N-acetylmuramoyl-L-alanine: D-glutamate liease, MurD (Escherichia coli, UniProt P14900); assay: biochemical; conditions: (E) E. coli enzyme
E. coli Uridine-diphosphate-N-acetylmuramoyl-L-alanine: D-glutamate liease, MurD, sequence (P14900 whole entry): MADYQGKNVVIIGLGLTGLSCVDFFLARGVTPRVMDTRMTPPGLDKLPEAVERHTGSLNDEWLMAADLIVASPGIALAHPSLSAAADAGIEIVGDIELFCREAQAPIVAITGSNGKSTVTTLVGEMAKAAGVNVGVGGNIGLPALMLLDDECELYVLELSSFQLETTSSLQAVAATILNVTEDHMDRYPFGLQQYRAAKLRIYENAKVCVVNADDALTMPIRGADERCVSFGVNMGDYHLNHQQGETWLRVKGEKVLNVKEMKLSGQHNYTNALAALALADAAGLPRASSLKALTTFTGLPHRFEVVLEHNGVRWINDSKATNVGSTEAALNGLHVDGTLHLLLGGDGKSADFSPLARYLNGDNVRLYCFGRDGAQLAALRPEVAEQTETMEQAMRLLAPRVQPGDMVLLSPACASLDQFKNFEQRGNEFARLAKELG
Summary of the method: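 Final buffer 83 mM Tris/HCl pH 8.0, 50 mM MgCl2, 2 mM ATP. Compounds from 10 mg/mL DMSO stocks diluted to 100 μg/mL in 50 mM Tris/HCl pH 8.5 (working solution, not final assay level).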

[4] = biological target: E. coli Uridine-diphosphate-N-acetvimuramoyl: L-alanine lipase, MurC (Escherichia coli, UniProt P17952); assay: Inhibitory activity against MurC (E. coli); format: biochemical; conditions: (E) E. coli enzyme; read-out: MurC IC50 (converted)
E. coli Uridine-diphosphate-N-acetvimuramoyl: L-alanine lipase, MurC, sequence (P17952 whole entry): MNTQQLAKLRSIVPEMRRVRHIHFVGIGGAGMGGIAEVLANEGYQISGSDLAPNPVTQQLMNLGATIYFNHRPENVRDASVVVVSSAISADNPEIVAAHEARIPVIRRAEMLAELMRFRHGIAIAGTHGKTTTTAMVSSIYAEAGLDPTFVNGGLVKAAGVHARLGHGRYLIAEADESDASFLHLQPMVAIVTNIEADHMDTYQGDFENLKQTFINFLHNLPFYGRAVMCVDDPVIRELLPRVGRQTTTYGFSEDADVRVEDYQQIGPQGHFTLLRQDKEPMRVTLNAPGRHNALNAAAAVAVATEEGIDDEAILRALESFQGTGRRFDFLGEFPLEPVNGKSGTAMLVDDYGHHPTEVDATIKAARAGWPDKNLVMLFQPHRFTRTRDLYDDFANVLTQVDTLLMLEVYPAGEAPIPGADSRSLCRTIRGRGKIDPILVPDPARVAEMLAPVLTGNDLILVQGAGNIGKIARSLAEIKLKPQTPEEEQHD

[5] = biological target: E. coli UDP-N-acetylglucosamine enolpyruvoyl transferase, MurA (Escherichia coli, UniProt P0A749); assay: biochemical; conditions: (E) E. coli enzyme
E. coli UDP-N-acetylglucosamine enolpyruvoyl transferase, MurA, sequence (P0A749 whole entry): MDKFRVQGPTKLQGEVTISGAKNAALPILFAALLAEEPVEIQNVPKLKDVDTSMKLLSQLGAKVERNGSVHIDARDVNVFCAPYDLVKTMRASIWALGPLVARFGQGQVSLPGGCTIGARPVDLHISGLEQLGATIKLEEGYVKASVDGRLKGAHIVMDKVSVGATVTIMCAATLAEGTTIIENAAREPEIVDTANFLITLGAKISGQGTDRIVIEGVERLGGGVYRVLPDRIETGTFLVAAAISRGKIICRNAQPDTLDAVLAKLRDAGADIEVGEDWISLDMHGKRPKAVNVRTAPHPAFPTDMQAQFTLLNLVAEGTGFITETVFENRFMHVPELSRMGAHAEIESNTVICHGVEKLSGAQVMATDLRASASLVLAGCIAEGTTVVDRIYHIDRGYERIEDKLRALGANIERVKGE
Summary of the method: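 Compound in DMSO/water pre-incubated 10 min at 37° C with enzyme in 50 mM Tris/HCl pH 8.0, 5 mM DTT, 20% glycerol. After Tris/BME and assay buffer were added, OD340 was read at start. Reaction ran 1 hr at 37° C, then stop solution was added with 30 min colour development.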

[6] = biological target: E. coli Enopyruvyl-UPD-N-acetylglucosamine reductase, Mur B (Escherichia coli, UniProt P08373); assay: biochemical; conditions: (E) E. coli enzyme; read-out: MurB IC50 (converted)
E. coli Enopyruvyl-UPD-N-acetylglucosamine reductase, Mur B, sequence (P08373 whole entry): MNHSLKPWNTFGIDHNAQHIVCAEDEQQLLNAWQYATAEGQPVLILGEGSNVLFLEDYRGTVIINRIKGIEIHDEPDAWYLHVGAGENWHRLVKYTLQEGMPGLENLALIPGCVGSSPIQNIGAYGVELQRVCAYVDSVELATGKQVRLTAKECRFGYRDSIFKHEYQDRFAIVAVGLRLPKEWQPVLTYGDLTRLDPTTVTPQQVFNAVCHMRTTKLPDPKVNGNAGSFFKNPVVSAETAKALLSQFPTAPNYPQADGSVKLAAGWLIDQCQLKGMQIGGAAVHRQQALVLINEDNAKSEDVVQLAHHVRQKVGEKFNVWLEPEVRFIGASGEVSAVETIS

staphylococci = assay: Minimum inhibitory concentration, microdilution broth method, staphylococci; format: cell-based; conditions: Staphylococcus aureus, Mueller-Hinton broth, 18-22 hours at 35° C.
Summary of the method: as §1

[7] = biological target: T1, S. aureus Uridine-diphosphate-N-acetylmuramoyl-L-alanine: D-glutamate liease, MurD (Staphylococcus aureus, UniProt Q2FZ92); assay: biochemical; conditions: (S) S. aureus enzyme
T1 sequence (Q2FZ92 1-449): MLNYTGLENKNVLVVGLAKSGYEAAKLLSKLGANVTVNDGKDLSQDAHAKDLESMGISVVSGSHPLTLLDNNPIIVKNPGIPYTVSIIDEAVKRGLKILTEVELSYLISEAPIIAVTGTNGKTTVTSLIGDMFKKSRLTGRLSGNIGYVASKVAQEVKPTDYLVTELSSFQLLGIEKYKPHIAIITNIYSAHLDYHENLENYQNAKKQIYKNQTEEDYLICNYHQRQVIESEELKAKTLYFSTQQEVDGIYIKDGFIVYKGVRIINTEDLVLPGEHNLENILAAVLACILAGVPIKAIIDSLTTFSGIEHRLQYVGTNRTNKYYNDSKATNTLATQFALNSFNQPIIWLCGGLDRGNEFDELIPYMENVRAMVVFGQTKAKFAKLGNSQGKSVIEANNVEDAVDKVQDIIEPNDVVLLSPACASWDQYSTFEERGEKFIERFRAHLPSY
Summary of the method: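 MurD, which catalyses the fourth step of cell wall biosynthesis, was tested for inhibition by compounds. Compounds were made up as 10 mg/mL DMSO stocks and diluted to 100 μg/mL in 50 mM Tris/HCl, pH 8.5.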

[8] = E. faecalis GC 2242, read-out: MIC E. faecalis GC 2242
[9] = E. faecalis GC 4555, read-out: MIC E. faecalis GC 4555
[10] = S. aureus GC 1131, read-out: MIC S. aureus GC 1131
[11] = S. aureus GC 4543, read-out: MIC S. aureus GC 4543

| Structure (SMILES) | Toxicity [1] | Mortality [2] | Rating (C. elegans) | MIC (enterococci; [8]) | MIC (enterococci; [9]) | MIC (Streptococci) | IC50 [3] | IC50 [4] | IC50 [5] | IC50 [6] | melting point | MIC (staphylococci; [10]) | MIC (staphylococci; [11]) | IC50 [7] |
| --- | --- | --- | --- | --- | --- | --- | --- | --- | --- | --- | --- | --- | --- | --- |
| COc1cc(/C=C2\OC(=O)C(c3cccc(Cl)c3)=C2O)ccc1-c1ccccc1C(F)(F)F | + | 29.50% | – | – | – | – | – | – | – | – | – | – | – | – |
| O=C1OC(=Cc2ccc(F)cc2)C(O)=C1c1ccc(C(F)(F)F)cc1 (mixture of isomers) [R=H; R1=4-CF3—C6H4**; R2=4-F—C6H4] | + | 95.80% | 9 | – | – | – | – | – | – | – | – | – | – | – |
| N#Cc1ccc(C2=C(O)C(=Cc3ccc(OC(F)(F)F)cc3)OC2=O)cc1 (mixture of isomers) [R=H; R1=4-CN—C6H4**; R2=4-OCF3—C6H4] | + | 90.00% | 9 | – | – | – | – | – | – | – | – | – | – | – |
| O=C1OC(=Cc2ccc(F)cc2)C(O)=C1c1ccc(Cl)cc1 (mixture of isomers) [R=H; R1=4-Cl—C6H4**; R2=4-F—C6H4] | + | 72.60% | 9 | – | – | – | – | – | – | – | – | – | – | – |
| O=C1OC(=Cc2ccc(Cl)c(Cl)c2)C(O)=C1c1ccc(OC(F)(F)F)cc1 (mixture of isomers) [R=H; R1=4-OCF3—C6H4**; R2=3,4-diCl—C6H3] | + | 100.0% | 9 | – | – | – | – | – | – | – | – | – | – | – |
| O=C1OC(=Cc2ccc(F)c(F)c2)C(O)=C1c1ccc(OC(F)(F)F)cc1 (mixture of isomers) [R=H; R1=4-OCF3—C6H4**; R2=3,4-diF—C6H3] | + | 100.0% | 9 | – | – | – | – | – | – | – | – | – | – | – |
| O=C1OC(=Cc2ccc(C(F)(F)F)cc2)C(O)=C1c1ccc(OC(F)(F)F)cc1 (mixture of isomers) [R=H; R1=4-OCF3—C6H4**; R2=4-CF3—C6H4] | + | 55.50% | 9 | – | – | – | – | – | – | – | – | – | – | – |
| N#Cc1ccc(C=C2OC(=O)C(c3ccc(OC(F)(F)F)cc3)=C2O)cc1 (mixture of isomers) [R=H; R1=4-OCF3—C6H4**; R2=4-CN—C6H4] | + | 88.90% | 9 | – | – | – | – | – | – | – | – | – | – | – |
| O=C1O/C(=C\c2cccc3ccccc23)C(O)=C1c1ccc2ccccc2c1 [Example 44] | – | – | – | 8 µg/mL (≈ 22 µM) | 16 µg/mL (≈ 43.9 µM) | 1 µg/mL (≈ 2.74 µM) | > 68.6 µM | 16.5 µM | 49.4 µM | 19.2 µM | 205 to 207 °C | 4 µg/mL (≈ 11 µM) | 8 µg/mL (≈ 22 µM) | – |
| O=C1O/C(=C\c2ccc(Cl)cc2)C(O)=C1c1cccc2ccccc12 [Example 46] | – | – | – | 64 µg/mL (≈ 183 µM) | 32 µg/mL (≈ 91.7 µM) | 16 µg/mL (≈ 45.9 µM) | > 71.7 µM | 45.9 µM | > 71.7 µM | > 71.7 µM | 235 to 237 °C | 64 µg/mL (≈ 183 µM) | 32 µg/mL (≈ 91.7 µM) | – |
| O=C1O/C(=C\c2ccc(-c3ccccc3)cc2)C(O)=C1c1ccc(Cl)cc1Cl [Example 65] | – | – | – | 4 µg/mL (≈ 9.77 µM) | 16 µg/mL (≈ 39.1 µM) | < 0.125 µg/mL | 58.6 µM | 7.33 µM | > 61.1 µM | 24.4 µM | 252 to 256 °C | 8 µg/mL (≈ 19.5 µM) | 8 µg/mL (≈ 19.5 µM) | 36.7 µM |
